Test system: 171881-019-R-J1-PDC tumor spheroid viability
Test: Anticancer human tumor 171881-019-R-J1-PDC patient-derived invasive breast carcinoma cell line growth inhibition [PI3K]
Details: spheroids with HUVEC and MSC; for IC50: curve of first compound; for viability, T/C: stronger effect = lower value
Procedure, shortened: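 Targeted small molecules plus PI3K inhibitors, half-log dose series from Cmax (default top 10 microM), were applied to heterotypic spheroids of cancer cells with HUVEC and MSCs. Viability indicated growth inhibition.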

[1] = second compound 0.0316 µM, first compound 0.0316 µM
[2] = second compound 0.0316 µM, first compound 0.1 µM
[3] = second compound 0.0316 µM, first compound 0.316 µM
[4] = second compound 0.0316 µM, first compound 1 µM
[5] = second compound 0.0316 µM, first compound 3.16 µM
[6] = second compound 0.0316 µM, first compound 10 µM
[7] = second compound 0.1 µM, first compound 0.0316 µM
[8] = second compound 0.1 µM, first compound 0.1 µM
[9] = second compound 0.1 µM, first compound 0.316 µM
[10] = second compound 0.1 µM, first compound 1 µM
[11] = second compound 0.1 µM, first compound 3.16 µM
[12] = second compound 0.1 µM, first compound 10 µM
[13] = second compound 0.316 µM, first compound 0.0316 µM
[14] = second compound 0.316 µM, first compound 0.1 µM
[15] = second compound 0.316 µM, first compound 0.316 µM
[16] = second compound 0.316 µM, first compound 1 µM
[17] = second compound 0.316 µM, first compound 3.16 µM
[18] = second compound 0.316 µM, first compound 10 µM
[19] = second compound 1 µM, first compound 0.0316 µM
[20] = second compound 1 µM, first compound 0.1 µM
[21] = second compound 1 µM, first compound 0.316 µM
[22] = second compound 1 µM, first compound 1 µM
[23] = second compound 1 µM, first compound 3.16 µM
[24] = second compound 1 µM, first compound 10 µM
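Note: spheroids exposed to compound for 7 days before viability read.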
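Throughout, for viability, T/C: 100% = DMSO vehicle-treated spheroids.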

Question: Which results are given for `CC(C)NCC(C(=O)N1CCN(c2ncnc3c2C(C)CC3O)CC1)c1ccc(Cl)cc1` (centres undefined) + CC(Nc1ncnc2nc[nH]c12)c1cc2cccc(Cl)c2c(=O)n1-c1ccccc1?
Answer: IC50 (second compound 0.0316 µM): 388 nM; IC50 (second compound 0.1 µM): 293 nM; IC50 (second compound 0.316 µM): 393 nM; IC50 (second compound 1 µM): 401 nM; IC50 (second compound 3.16 µM): 357 nM; IC50 (second compound 10 µM): 150 nM; viability, T/C [1]: 96.1%; viability, T/C [2]: 83.8%; viability, T/C [3]: 54.5%; viability, T/C [4]: 27.6%; viability, T/C [5]: 14.6%; viability, T/C [6]: 11.4%; viability, T/C [7]: 97.6%; viability, T/C [8]: 73.1%; viability, T/C [9]: 48.4%; viability, T/C [10]: 29.4%; viability, T/C [11]: 14.6%; viability, T/C [12]: 10.1%; viability, T/C [13]: 80%; viability, T/C [14]: 82.8%; viability, T/C [15]: 50.9%; viability, T/C [16]: 30%; viability, T/C [17]: 14.4%; viability, T/C [18]: 9.02%; viability, T/C [19]: 93.2%; viability, T/C [20]: 81%; viability, T/C [21]: 55.9%; viability, T/C [22]: 28%; viability, T/C [23]: 12.5%; viability, T/C [24]: 8.65%; viability, T/C (second compound 3.16 µM, first compound 0.0316 µM): 78.6%; viability, T/C (second compound 3.16 µM, first compound 0.1 µM): 75.1%; viability, T/C (second compound 3.16 µM, first compound 0.316 µM): 51.2%; viability, T/C (second compound 3.16 µM, first compound 1 µM): 27.1%; viability, T/C (second compound 3.16 µM, first compound 3.16 µM): 11.5%; viability, T/C (second compound 3.16 µM, first compound 10 µM): 8.08%; viability, T/C (second compound 10 µM, first compound 0.0316 µM): 57%; viability, T/C (second compound 10 µM, first compound 0.1 µM): 53.6%; viability, T/C (second compound 10 µM, first compound 0.316 µM): 43%; viability, T/C (second compound 10 µM, first compound 1 µM): 21.6%; viability, T/C (second compound 10 µM, first compound 3.16 µM): 9.56%; viability, T/C (second compound 10 µM, first compound 10 µM): 5.96%

Question: With `Cn1nccc1Nc1nccc(-c2ccn(C(CO)c3ccc(Cl)c(F)c3)c(=O)c2)n1` (centres undefined) + COc1c(OCCCN2CCOCC2)ccc2c3n(c(=NC(=O)c4cnc(N)nc4)nc12)CCN3 as the molecule, how does the IC50 (second compound 0.00316 µM) read?
Answer: 38.2 nM

Question: And the IC50 (second compound 0.01 µM)?
Answer: < 31.6 nM

Question: And the IC50 (second compound 0.0316 µM)?
Answer: < 31.6 nM

Question: What about the IC50 (second compound 0.1 µM) of the same molecule?
Answer: < 31.6 nM

Question: What about the IC50 (second compound 0.316 µM) of the same molecule?
Answer: < 31.6 nM

Question: And the IC50 (second compound 1 µM)?
Answer: < 31.6 nM

Question: What about the viability, T/C (second compound 0.00316 µM, first compound 0.0316 µM) of the same molecule?
Answer: 51.4%

Question: And the viability, T/C (second compound 0.00316 µM, first compound 0.1 µM)?
Answer: 42.5%

Question: And the viability, T/C (second compound 0.00316 µM, first compound 0.316 µM)?
Answer: 28.6%

Question: What about the viability, T/C (second compound 0.00316 µM, first compound 1 µM) of the same molecule?
Answer: 18.1%

Question: And the viability, T/C (second compound 0.00316 µM, first compound 3.16 µM)?
Answer: 14.3%

Question: And the viability, T/C (second compound 0.00316 µM, first compound 10 µM)?
Answer: 11%

Question: And the viability, T/C (second compound 0.01 µM, first compound 0.0316 µM)?
Answer: 44.5%

Question: What about the viability, T/C (second compound 0.01 µM, first compound 0.1 µM) of the same molecule?
Answer: 32.1%

Question: And the viability, T/C (second compound 0.01 µM, first compound 0.316 µM)?
Answer: 21.4%

Question: What about the viability, T/C (second compound 0.01 µM, first compound 1 µM) of the same molecule?
Answer: 12.2%

Question: And the viability, T/C (second compound 0.01 µM, first compound 3.16 µM)?
Answer: 9.48%

Question: And the viability, T/C (second compound 0.01 µM, first compound 10 µM)?
Answer: 7.46%

Question: And the viability, T/C [1]?
Answer: 19.3%

Question: And the viability, T/C [2]?
Answer: 14.8%

Question: And the viability, T/C [3]?
Answer: 8.54%

Question: And the viability, T/C [4]?
Answer: 5.82%

Question: What about the viability, T/C [5] of the same molecule?
Answer: 4.42%

Question: And the viability, T/C [6]?
Answer: 2.75%

Question: And the viability, T/C [7]?
Answer: 6.44%

Question: What about the viability, T/C [8] of the same molecule?
Answer: 4.39%

Question: And the viability, T/C [9]?
Answer: 3.29%

Question: And the viability, T/C [10]?
Answer: 2.41%

Question: And the viability, T/C [11]?
Answer: 2.36%

Question: And the viability, T/C [12]?
Answer: 0.87%

Question: And the viability, T/C [13]?
Answer: 1.92%

Question: What about the viability, T/C [14] of the same molecule?
Answer: 1.3%

Question: And the viability, T/C [15]?
Answer: 1.85%

Question: And the viability, T/C [16]?
Answer: 1.35%

Question: What about the viability, T/C [17] of the same molecule?
Answer: 0.41%

Question: And the viability, T/C [18]?
Answer: 0.33%

Question: What about the viability, T/C [19] of the same molecule?
Answer: 0.78%

Question: And the viability, T/C [20]?
Answer: 0.82%

Question: What about the viability, T/C [21] of the same molecule?
Answer: 0.76%

Question: And the viability, T/C [22]?
Answer: 0.86%

Question: What about the viability, T/C [23] of the same molecule?
Answer: 1.32%

Question: And the viability, T/C [24]?
Answer: 0.5%

Reference: PubChem BioAssay AID1963986 (Molecular Pharmacology Branch, DTP, NCI, 2024)
